Values quoted from earlier work in patent US20140018438A1, “METHOD OF DESTROYING BACTERIAL BIOFILM USING STERILE INTRAVENOUS OR INTRACAVERNOUS GLYCERIN” (priority 2012, published 2014).

Conditions: sterile product for intravenous administration, generally 3% concentration at 80-100 milliliters per hour

## OCC(O)CO [Glycerin]
  allergic reactions / safety profile: free of allergic reactions
